Results taken from article PMC5762315, “Inhibition of polo-like kinase 4 (PLK4): a new therapeutic option for rhabdoid tumors and pediatric medulloblastoma” (Oncotarget, 2017).
Where “and” joins values, the source holds several entries; their conditions need not be identical. Identical values can stand only once.

How the values were obtained:
Test in all cases: biochemical
Type in all cases: biochemical
various kinases [1] = biological target: various kinases (Homo sapiens, UniProt P42684); settings: ABL2 (Arg)
various kinases [2] = biological target: various kinases (Homo sapiens, UniProt Q9P1W9); settings: PIM2
various kinases [3] = biological target: various kinases (Homo sapiens, UniProt P15735); settings: PHKG2
various kinases [4] = biological target: various kinases (Homo sapiens, UniProt P27448); settings: MARK3
various kinases [5] = biological target: various kinases (Homo sapiens, UniProt Q96L34); settings: MARK4
various kinases [6] = biological target: various kinases (Homo sapiens, UniProt Q6VAB6); settings: KSR2
Chain of various kinases (Homo sapiens, UniProt Q6VAB6) (Q6VAB6 whole entry): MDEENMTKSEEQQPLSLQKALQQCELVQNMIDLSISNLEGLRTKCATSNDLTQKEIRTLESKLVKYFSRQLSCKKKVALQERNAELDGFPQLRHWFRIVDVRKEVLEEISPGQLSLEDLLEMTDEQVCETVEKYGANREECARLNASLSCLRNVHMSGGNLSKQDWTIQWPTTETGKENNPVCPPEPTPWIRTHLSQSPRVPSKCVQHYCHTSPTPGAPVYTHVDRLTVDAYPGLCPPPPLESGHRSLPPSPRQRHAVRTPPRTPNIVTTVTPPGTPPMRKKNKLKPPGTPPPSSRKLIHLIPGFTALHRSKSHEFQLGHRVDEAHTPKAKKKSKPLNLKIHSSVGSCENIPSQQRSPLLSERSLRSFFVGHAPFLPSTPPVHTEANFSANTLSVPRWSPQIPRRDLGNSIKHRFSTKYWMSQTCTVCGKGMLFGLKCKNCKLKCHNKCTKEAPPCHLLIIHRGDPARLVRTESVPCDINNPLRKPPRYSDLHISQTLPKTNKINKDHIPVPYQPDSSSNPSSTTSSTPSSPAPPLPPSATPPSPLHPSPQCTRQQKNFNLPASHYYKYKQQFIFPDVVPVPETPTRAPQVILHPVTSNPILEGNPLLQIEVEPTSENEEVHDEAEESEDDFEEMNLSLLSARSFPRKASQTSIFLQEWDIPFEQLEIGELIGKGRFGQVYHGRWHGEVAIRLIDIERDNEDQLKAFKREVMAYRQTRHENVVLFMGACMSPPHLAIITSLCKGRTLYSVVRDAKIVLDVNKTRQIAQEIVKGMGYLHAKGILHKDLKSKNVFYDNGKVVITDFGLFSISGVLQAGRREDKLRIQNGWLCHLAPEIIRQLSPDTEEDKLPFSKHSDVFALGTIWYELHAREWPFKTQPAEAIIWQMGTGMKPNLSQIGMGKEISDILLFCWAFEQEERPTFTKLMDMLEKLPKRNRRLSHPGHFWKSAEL

various kinases [7] = biological target: various kinases (Homo sapiens, UniProt P22455); settings: FGFR4
Chain of various kinases (Homo sapiens, UniProt P22455) (P22455 22-802): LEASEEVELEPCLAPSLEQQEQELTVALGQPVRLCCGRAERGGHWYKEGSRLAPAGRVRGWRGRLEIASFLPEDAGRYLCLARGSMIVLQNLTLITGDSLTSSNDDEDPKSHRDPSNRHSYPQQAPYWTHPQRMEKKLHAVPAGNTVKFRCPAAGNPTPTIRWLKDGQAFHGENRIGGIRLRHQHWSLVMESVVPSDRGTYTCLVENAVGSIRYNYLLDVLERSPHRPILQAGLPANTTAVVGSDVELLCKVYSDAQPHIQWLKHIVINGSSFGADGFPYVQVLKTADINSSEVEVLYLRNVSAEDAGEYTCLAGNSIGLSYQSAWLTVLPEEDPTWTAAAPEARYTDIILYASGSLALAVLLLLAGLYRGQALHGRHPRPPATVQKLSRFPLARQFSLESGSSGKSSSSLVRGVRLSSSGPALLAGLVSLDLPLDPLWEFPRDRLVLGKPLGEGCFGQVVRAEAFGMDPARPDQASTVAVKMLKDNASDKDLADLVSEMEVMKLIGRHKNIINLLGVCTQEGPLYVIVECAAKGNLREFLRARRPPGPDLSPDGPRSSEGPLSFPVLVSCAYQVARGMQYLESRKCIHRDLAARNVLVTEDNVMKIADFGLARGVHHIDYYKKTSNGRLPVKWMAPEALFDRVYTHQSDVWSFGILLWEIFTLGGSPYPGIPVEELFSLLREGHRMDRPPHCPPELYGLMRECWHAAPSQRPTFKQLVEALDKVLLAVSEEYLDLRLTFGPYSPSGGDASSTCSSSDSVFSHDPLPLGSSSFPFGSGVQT

various kinases [8] = biological target: various kinases (Homo sapiens, UniProt Q00537); settings: CDK17/cyclin Y
Chain of various kinases (Homo sapiens, UniProt Q00537) (Q00537 whole entry): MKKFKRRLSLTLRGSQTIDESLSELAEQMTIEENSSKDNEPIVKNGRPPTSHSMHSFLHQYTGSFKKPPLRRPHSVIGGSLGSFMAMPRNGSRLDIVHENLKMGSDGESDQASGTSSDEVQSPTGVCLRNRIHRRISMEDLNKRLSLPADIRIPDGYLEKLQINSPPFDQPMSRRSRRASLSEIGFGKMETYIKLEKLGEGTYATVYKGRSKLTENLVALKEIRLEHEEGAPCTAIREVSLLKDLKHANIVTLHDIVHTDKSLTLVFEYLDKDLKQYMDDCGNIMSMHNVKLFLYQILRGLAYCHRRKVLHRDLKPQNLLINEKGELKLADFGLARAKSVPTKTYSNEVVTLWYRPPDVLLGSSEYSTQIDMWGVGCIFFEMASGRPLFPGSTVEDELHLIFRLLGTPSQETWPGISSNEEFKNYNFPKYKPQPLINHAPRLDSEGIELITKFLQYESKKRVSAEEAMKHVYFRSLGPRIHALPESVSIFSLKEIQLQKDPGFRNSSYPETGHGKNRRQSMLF

various kinases [9] = biological target: various kinases (Homo sapiens, UniProt P22607, K650E); settings: FGFR3 K650E
various kinases [10] = biological target: various kinases (Homo sapiens, UniProt Q8WTQ7); settings: GRK7
various kinases [11] = biological target: various kinases (Homo sapiens, UniProt P53350); settings: kinase PLK1; ZLYTE
Chain of various kinases (Homo sapiens, UniProt P53350) (P53350 whole entry): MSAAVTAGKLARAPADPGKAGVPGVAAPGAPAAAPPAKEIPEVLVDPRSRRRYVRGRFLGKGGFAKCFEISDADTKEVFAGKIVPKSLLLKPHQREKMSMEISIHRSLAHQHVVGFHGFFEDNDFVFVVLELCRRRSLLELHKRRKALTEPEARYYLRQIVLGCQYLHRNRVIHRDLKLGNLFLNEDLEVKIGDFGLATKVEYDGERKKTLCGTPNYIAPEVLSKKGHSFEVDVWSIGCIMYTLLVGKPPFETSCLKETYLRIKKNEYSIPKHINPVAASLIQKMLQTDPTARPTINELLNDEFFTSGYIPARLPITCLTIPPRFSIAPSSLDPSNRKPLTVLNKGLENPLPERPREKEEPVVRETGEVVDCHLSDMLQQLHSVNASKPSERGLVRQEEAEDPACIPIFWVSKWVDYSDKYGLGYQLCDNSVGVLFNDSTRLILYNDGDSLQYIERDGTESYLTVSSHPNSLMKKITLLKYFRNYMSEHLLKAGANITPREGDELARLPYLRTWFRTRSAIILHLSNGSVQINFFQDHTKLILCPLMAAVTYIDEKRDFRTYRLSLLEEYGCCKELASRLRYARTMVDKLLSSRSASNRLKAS

various kinases [12] = biological target: various kinases (Homo sapiens, UniProt Q9HC98); settings: NEK6
various kinases [13] = biological target: various kinases (Homo sapiens, UniProt Q9NYY3); settings: kinase PLK2; ZLYTE
Chain of various kinases (Homo sapiens, UniProt Q9NYY3) (Q9NYY3 whole entry): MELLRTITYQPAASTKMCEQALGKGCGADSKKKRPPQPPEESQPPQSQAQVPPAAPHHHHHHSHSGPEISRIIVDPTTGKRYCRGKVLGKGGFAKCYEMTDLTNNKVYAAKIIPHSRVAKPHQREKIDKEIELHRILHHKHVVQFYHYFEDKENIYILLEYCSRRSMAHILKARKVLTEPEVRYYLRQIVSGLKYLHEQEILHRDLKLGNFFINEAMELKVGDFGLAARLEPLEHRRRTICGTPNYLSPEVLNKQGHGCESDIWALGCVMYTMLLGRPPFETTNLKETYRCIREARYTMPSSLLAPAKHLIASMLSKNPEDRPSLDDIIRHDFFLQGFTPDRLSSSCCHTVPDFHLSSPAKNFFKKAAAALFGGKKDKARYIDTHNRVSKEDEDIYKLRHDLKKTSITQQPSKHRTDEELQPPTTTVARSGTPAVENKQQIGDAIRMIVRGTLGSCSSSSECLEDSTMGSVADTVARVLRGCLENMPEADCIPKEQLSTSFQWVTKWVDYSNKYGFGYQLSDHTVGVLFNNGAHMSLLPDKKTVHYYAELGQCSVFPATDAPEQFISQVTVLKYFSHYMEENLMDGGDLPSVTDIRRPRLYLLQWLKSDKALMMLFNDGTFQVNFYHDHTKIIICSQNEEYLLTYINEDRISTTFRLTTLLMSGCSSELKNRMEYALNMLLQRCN

various kinases [14] = biological target: various kinases (Homo sapiens, UniProt Q07002); settings: CDK18/cyclin Y
various kinases [15] = biological target: various kinases (Homo sapiens, UniProt P23458); settings: JAK1
various kinases [16] = biological target: various kinases (Homo sapiens, UniProt P31749); settings: AKT1 (PKB alpha)
various kinases [17] = biological target: T1, various kinases (Homo sapiens, UniProt Q9BXA7); settings: kinase STK22D (TSSK1); ZLYTE
T1 sequence (Q9BXA7 1-367): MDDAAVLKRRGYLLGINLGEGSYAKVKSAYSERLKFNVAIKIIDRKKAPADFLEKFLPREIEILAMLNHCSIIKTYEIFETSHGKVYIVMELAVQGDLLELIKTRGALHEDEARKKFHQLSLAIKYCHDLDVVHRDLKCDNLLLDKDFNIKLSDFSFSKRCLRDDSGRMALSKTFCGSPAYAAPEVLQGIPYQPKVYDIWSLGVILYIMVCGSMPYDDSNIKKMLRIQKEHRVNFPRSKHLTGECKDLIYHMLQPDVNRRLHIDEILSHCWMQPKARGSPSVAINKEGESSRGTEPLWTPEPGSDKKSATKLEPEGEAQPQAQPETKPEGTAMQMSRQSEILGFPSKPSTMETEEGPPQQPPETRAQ

various kinases [18] = biological target: various kinases (Homo sapiens, UniProt P00533, L861Q); settings: EGFR (ErbB1) L861Q
various kinases [19] = biological target: various kinases (Homo sapiens, UniProt Q13153); settings: PAK1
Chain of various kinases (Homo sapiens, UniProt Q13153) (Q13153 whole entry): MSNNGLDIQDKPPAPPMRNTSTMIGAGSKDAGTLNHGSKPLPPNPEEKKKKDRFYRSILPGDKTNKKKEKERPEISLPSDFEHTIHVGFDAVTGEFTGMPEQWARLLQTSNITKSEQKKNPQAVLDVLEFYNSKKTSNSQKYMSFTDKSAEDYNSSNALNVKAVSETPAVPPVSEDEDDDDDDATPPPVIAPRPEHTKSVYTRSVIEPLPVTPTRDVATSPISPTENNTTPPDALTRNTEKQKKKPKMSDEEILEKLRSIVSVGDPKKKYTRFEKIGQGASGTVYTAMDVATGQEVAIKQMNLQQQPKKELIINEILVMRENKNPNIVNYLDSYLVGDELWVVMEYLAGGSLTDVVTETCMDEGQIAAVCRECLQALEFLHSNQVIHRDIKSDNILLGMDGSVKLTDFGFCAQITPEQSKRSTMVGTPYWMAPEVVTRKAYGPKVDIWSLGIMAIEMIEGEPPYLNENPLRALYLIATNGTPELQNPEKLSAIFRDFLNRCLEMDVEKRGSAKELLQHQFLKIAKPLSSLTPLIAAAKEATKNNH

various kinases [20] = biological target: various kinases (Homo sapiens, UniProt P06213); settings: INSR
various kinases [21] = biological target: T2, various kinases (Homo sapiens, UniProt Q13976); settings: kinase PRKG1; ZLYTE
T2 sequence (Q13976 1-671): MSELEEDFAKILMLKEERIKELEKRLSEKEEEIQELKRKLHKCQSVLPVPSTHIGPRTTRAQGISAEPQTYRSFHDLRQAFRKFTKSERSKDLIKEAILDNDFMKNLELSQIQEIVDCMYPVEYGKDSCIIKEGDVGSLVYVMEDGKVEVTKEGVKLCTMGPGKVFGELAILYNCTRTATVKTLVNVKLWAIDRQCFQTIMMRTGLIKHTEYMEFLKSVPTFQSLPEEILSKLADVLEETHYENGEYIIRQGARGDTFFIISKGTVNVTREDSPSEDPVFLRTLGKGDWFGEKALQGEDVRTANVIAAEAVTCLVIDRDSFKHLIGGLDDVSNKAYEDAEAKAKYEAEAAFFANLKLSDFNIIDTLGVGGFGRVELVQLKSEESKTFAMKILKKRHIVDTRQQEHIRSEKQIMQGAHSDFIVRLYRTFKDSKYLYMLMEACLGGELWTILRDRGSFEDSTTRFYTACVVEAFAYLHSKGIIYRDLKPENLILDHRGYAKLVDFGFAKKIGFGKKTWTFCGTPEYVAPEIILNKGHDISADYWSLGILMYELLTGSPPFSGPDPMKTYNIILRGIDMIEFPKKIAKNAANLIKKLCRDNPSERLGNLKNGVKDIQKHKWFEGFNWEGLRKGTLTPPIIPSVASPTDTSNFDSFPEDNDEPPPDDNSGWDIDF

various kinases [22] = biological target: various kinases (Homo sapiens, UniProt O75676); settings: kinase RPS6KA4 (MSK2); ZLYTE
Chain of various kinases (Homo sapiens, UniProt O75676) (O75676 whole entry): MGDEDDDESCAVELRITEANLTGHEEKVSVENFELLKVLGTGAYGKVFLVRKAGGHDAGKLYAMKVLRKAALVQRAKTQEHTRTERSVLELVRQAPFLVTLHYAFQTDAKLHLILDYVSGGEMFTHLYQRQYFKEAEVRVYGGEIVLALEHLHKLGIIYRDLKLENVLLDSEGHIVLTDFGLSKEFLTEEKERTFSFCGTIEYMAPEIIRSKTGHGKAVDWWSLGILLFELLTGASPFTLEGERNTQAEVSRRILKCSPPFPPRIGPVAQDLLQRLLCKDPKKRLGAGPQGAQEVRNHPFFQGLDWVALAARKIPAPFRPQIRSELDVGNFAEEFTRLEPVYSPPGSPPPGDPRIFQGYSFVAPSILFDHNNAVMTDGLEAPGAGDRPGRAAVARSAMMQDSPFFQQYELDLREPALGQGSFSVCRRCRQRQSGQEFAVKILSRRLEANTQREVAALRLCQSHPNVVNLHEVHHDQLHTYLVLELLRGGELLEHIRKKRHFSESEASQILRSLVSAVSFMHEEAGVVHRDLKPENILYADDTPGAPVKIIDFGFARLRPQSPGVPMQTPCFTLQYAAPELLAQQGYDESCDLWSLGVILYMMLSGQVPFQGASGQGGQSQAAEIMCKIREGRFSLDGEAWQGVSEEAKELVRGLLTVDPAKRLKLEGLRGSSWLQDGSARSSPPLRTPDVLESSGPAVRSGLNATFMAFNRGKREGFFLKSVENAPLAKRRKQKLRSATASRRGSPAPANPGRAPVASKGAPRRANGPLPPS

various kinases [23] = biological target: various kinases (Homo sapiens, UniProt P48729); settings: CSNK1A1 (CK1 alpha 1)
Throughout, for % Inhibition Average: test concentration or dose not given here.
Throughout, for % Inhibition Duplicate #1: test concentration or dose not given here.
Throughout, for % Inhibition Duplicate #2: test concentration or dose not given here.

COc1ccc2c(c1)[C@]1(C[C@H]1c1ccc3c(/C=C/c4ccc(CN5C[C@@H](C)O[C@@H](C)C5)cc4)n[nH]c3c1)C(=O)N2 [CFI-400945]
% Inhibition (various kinases [1]): 58% and 63% | % Inhibition (various kinases [2]): 8% and 9% | % Inhibition (various kinases [3]): 8% and 7% | % Inhibition (various kinases [4]): 9% and 19% | % Inhibition (various kinases [5]): 8% and 3% | % Inhibition (various kinases [6]): 3% and 4% | % Inhibition (various kinases [7]): 10% and 16% | % Inhibition (various kinases [8]): -1% and 8% | % Inhibition (various kinases [9]): 38% and 44% | % Inhibition (various kinases [10]): 13% and 12% | % Inhibition Average (various kinases [11]): 5% | % Inhibition Duplicate #1 (various kinases [11]): 6% | % Inhibition Duplicate #2 (various kinases [11]): 5% | % Inhibition (various kinases [12]): 8% and 13% | % Inhibition Average (various kinases [13]): 4% | % Inhibition Duplicate #1 (various kinases [13]): 4% | % Inhibition Duplicate #2 (various kinases [13]): 4% | % Inhibition (various kinases [14]): 5% and 4% | % Inhibition (various kinases [15]): 1% and 0% | % Inhibition (various kinases [16]): 4% and 3% | % Inhibition Average (various kinases [17]): 6% | % Inhibition Duplicate #1 (various kinases [17]): 7% | % Inhibition Duplicate #2 (various kinases [17]): 5% | % Inhibition (various kinases [18]): 3% and 0% | % Inhibition (various kinases [19]): 11% and 6% | % Inhibition (various kinases [20]): 4% and 10% | % Inhibition Average (various kinases [21]): 5% | % Inhibition Duplicate #1 (various kinases [21]): 6% | % Inhibition Duplicate #2 (various kinases [21]): 4% | % Inhibition Average (various kinases [22]): 0% | % Inhibition Duplicate #1 (various kinases [22]): -2% | % Inhibition Duplicate #2 (various kinases [22]): 3% | % Inhibition (various kinases [23]): 7%
